{
  "source": "patent US6413764B1",
  "about": "“Human metabotropic glutamate receptors, nucleic acids encoding same and uses thereof” (Merck & Co., Inc., priority 1993, dated 2002)",
  "key": {"[1]": {"molecular_target": "T1, human mGluR5a receptor (Homo sapiens, UniProt P41594)", "T1 sequence (P41594 21-1180 isoform P41594-2 limits assumed)": "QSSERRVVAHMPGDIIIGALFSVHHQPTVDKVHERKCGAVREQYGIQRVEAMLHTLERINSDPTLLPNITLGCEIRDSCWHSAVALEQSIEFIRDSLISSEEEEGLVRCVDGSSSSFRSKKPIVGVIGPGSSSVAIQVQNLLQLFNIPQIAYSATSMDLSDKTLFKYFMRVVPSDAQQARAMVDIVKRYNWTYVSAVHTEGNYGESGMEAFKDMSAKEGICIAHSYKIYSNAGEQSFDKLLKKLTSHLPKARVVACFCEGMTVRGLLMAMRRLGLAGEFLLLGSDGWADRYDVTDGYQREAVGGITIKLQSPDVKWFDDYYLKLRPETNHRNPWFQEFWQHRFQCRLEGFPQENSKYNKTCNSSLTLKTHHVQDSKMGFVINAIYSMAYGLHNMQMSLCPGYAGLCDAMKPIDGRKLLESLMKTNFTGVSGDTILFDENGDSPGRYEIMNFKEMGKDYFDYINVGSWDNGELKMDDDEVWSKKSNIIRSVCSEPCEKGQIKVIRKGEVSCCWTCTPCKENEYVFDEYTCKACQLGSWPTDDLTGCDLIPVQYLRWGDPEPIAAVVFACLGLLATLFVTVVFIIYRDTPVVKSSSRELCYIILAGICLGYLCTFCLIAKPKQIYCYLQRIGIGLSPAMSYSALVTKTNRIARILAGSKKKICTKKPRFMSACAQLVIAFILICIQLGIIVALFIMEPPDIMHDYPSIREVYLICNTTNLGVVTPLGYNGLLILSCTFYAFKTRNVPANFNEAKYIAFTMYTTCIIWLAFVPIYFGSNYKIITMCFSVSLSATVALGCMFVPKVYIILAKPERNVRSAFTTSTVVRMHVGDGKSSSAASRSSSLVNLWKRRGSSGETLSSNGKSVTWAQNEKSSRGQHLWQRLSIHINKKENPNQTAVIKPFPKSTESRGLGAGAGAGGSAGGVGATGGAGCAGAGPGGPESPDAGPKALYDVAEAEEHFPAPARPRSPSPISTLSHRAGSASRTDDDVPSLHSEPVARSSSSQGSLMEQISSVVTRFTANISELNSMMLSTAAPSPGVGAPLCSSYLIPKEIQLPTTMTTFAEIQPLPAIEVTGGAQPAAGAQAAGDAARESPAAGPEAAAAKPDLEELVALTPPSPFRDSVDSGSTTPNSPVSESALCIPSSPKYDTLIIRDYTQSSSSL", "test": "Automated fluorescence assay (fluo-3) in transiently transfected HEK 293 cells", "type": "cell-based", "design": "expressed in transfected cells; host or cells: HEK 293 cells, transient CaPO4 transfection", "conditions": "cells transfected with mGluR5a2", "procedure": "HEK 293 cells were transiently transfected with DNA encoding mGluR5a (constructs mGluR5a2 and mGluR5a3 and construct MMTV-hmGluR5a) receptors. Approximately 2×10^6 HEK cells were transiently transfected with 5-18 μg (or 0.18 μg in some transfections, see Example 3.C.2.) of the indicated plasmid according to standard CaPO4 transfection procedures [see Wigler et al. (1979) Proc. Natl. Acad. Sci. USA 76:1373-1376]. In addition, 0.5-2 μg (or 0.18 μg in some transfections, see Example 3.C.2) of plasmid pCMVβgal (Clontech Laboratories, Palo Alto, Calif.), which contains the Escherichia coli β-galactosidase gene fused to the CMV promoter, were co-transfected as a reporter gene for monitoring the efficiency of transfection. The transfectants were analyzed for β-galactosidase expression by direct staining of the product of a reaction involving β-galactosidase and the X-gal substrate [Jones (1986) EMBO 5:3133-3142]. Transfectants can also be analyzed for β-galactosidase expression by measurement of β-galactosidase activity [Miller (1972) in Experiments in Molecular Genetics, pp.352-355, Cold Spring Harbor Press].\nHEK 293 cells that were transiently transfected with 5 μg of MMTV-hmGluR5A were co-transfected with 5 μg of pRShGR (ATCC accession no. 67200) which contains DNA encoding a glucocorticoid receptor operatively linked to the Rous Sarcoma virus (RSV) LTR promoter. Co-expression of glucocorticoid receptors in these cells should insure that induction of expression of the MMTV promoter-mGluR5a DNA occurs upon addition of glucocorticoid (e.g., dexamethasone) to the cells.\nUntransfected HEK 293 cells (or HEK 293 cells transiently transfected with pCMV-T7-3) and HEK 293 cells that had been transfected with mGluR5a-encoding DNA were plated in the wells of a 96-well microtiter dish (Nunc Catalog No. 1-6708, distributed by Alameda Industries, Escondido, Calif.) that had been precoated with poly-L-lysine at a density of 2×10^5 cells/well and loaded with fluo-3 by incubation for 2 hours at 20° C. in a medium containing 20 μM fluo-3, 0.2% Pluronic F-127 in HBS (125 mM NaCl, 5 mM KCl, 1.8 mM CaCl2, 0.62 MM MgCl2, 20 mM glucose, 20 mM HEPES, pH 7.4). The cells were then washed with assay buffer (i.e. HBS). The microtiter dish was then placed into a fluorescence plate reader (e.g., Fluoroskan II, Lab Products International, Ltd., Raleigh, N.C.), and the basal fluorescence of each well was measured and recorded before addition of metabotropic receptor-modulating compounds such as quisqualate, glutamate, trans-ACPD (1-amino-cyclopentane-1,3-dicarboxylic acid), 1S,3R-ACPD, AP3 (2-amino-3-phosphonopropionate) AP5 (2-amino-5-phosphonopentanoate), and CNQX (6-cyano-7-nitroquinoxaline-2,3-dione) to the wells. The fluorescence of the wells was monitored repeatedly (75 readings at 0.63-sec intervals) following addition of agonist."}, "[2]": {"molecular_target": "olfactory cyclic nucleotide-gated channel (Rattus norvegicus, UniProt Q00195)", "sequence (Q00195 whole entry)": "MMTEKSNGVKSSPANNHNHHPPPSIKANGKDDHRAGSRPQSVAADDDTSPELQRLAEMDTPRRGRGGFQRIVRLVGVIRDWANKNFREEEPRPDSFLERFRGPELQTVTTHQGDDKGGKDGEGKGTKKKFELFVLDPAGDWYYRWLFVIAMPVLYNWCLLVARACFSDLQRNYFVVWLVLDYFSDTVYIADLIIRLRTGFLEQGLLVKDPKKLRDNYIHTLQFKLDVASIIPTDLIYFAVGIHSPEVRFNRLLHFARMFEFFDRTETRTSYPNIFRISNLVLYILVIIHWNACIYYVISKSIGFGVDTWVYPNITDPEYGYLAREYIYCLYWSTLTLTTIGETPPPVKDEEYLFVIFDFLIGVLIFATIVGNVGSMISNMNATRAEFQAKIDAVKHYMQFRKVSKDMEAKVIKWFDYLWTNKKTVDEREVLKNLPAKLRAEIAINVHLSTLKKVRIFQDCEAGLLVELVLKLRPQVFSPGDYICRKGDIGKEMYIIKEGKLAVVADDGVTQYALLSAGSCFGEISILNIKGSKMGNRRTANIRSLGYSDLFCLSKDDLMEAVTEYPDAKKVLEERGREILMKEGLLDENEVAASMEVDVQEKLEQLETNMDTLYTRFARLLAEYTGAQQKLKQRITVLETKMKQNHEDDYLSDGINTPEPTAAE", "conditions": "1 mM cAMP; membrane potential ramped from −100 to +100 mV in 2 seconds; one patch", "experimental": "HEK293 cells were grown in monolayers (approximately 2×10^6 cells per 10 cm poly-D-lysine-coated plate) in Dulbecco's modified Eagle's medium (DMEM; Gibco) containing 5% defined supplemented calf serum (Hyclone) including 100 U/ml penicillin and 100 μg/ml streptomycin sulfate. […] Transfection efficiencies, as determined by measuring β-galactosidase activity, were 50-70%.\nHEK cells transfected with olfactory cyclic nucleotide-gated channel DNA were incubated 24-48 hours before testing for function. The activity of the channels was first assessed electrophysiologically using inside-out membrane patches pulled from the transfected cells so that the concentration of cAMP reaching the cytoplasmic face could be controlled (see, e.g., Single-Channel Recording, Sakmann and Neher, eds., Plenum Press, N.Y. (1983)). […]"}, "[3]": {"test_system": "olfactory cyclic nucleotide-gated channel", "test": "Single-cell video imaging of [Ca++]i in HEK293 cells transfected with pCMV-OCNA", "type": "cell-based", "conditions": "1 mM IBMX", "procedure": "The transfectants were also analyzed by single-cell video imaging of internal calcium levels ([Ca^++]i). This method allows analysis of cyclic nucleotide-gated channel activity by measurement of intracellular calcium levels, which change with the amount of calcium influx through the channel, as regulated by cyclic nucleotide activation of the channel. The imaging assay was conducted essentially as described in Example 3.C.1.b., with some modifications. After dye loading, the cells were examined using a Zeiss Axiovert microscope and 100 W mercury lamp, a Dage intensified CCD camera, and Image-1 hardware and software for image processing. The software controlled the alternate excitation of the cells at 350 and 385 nm (typically every 5 seconds) through a 20×1.3 N.A. oil immersion objective. Light emitted at greater than 510 nm was collected by the CCD camera, digitized, and 350 and 385 nm excitation images were background-subtracted before calculating the 350/385 nm intensity ratio.\nFor quantitative analysis, the average 350/385 ratio value in a 12 by 12 pixel region over each cell was calculated by the software for each ratio image in an experiment and imported into a spreadsheet for further analysis and graphing. […]\nIn these experiments, the HEK293 cell transfectants were exposed to agents which increase intracellular cAMP levels and monitored for subsequent changes in [Ca^++]i. […]"}, "[4]": {"molecular_target": "T1, human mGluR5a receptor", "test": "[3H]-glutamate binding to membranes of HEK 293 cells transfected with mGluR5a3", "design": "expressed in transfected cells; host or cells: HEK 293 cells, transient CaPO4 transfection", "conditions": "200 μg of membranes, 100 nM [3H]-glutamate", "experimental": "In order to prepare membranes from HEK 293 cells transfected. with mGluR5a-encoding DNA or pUC19 (negative control), cells were scraped from the tissue culture plates, and the plates rinsed with 5 ml of PBS (phosphate-buffered saline: 137 mM NaCl, 2.7 mM KCl, 10 mM Na2HPO4, 1.7 mM KH2PO4). The cells were centrifuged at low speed in a table-top centrifuge, and the cell pellet was rinsed with PBS. The cell pellet was resuspended in 20 volumes of 50 mM Tris-HCl containing 0.5 mM PMSF, pH 7.6. The cells were homogenized on ice in a Dounce (teflon/glass) homogenizer using 10-20 strokes. The homogenate was centrifuged at 120,000×g for 30 min. at 4° C. The final membrane pellet was resuspended in 50 mM Tris-HCl containing 0.5 mM PMSF, pH 7.6. […] The protein concentration was determined using the method of Bradford [(1976) Anal. Biochem. 72:248).\nSpecific binding of [^3H]-glutamate to membranes prepared from HEK 293 cells transfected with mGluR5a-encoding DNA or pUC19 was determined essentially as described for measuring binding to rat brain membranes with minor modifications. […] NMDA, AMPA and kainate were excluded from the assay mixture when HEK 293 cell membranes were being analyzed for [^3H]-glutamate binding.\nSpecific binding of [^3H]-glutamate to membranes prepared from HEK 293 cells transfected with mGluR5a3 or pUC19 was measured using 200 μg of membranes and 100 nM [^3H]-glutamate."}, "[5]": {"molecular_target": "T1, human mGluR5a receptor", "test": "Phosphatidylinositol hydrolysis (IP1) assay in HEK 293 cells transiently transfected with mGluR5a3", "type": "cell-based", "design": "expressed in transfected cells; host or cells: HEK 293 cells, transient CaPO4 transfection", "conditions": "1 mM AP3", "procedure": "HEK 293 cells that had been transiently transfected with mGluR5a3 were plated in 24-well microtiter plates at a density of 8×10^5 cells/well. After the cells were allowed to settle and adhere to the bottom of the plate for a few hours, 2 μCi of [^3H]-myo-inositol (Amersham catalog # PT6-271, Arlington Heights, Ill.; specific activity=17.7 Ci/mmol) was added to each well and incubated overnight at 37° C. The next day, the cells were examined under a Nikon Diaphot inverted microscope to assess the health of the cells morphologically as well as to determine if the wells contained a confluent layer of cells. Media was then aspirated and the cells were washed twice with 0.5 ml Krebs bicarbonate buffer [117.9 mM NaCl, 4.72 mM KCl, 2.54 mM CaCl2, 1.18 mM MgSO4, 1.19 mM KH2PO4, 25 mM NaHCO3, 11.1 mM dextrose (equilibrated with 95% O2, 5% CO2, pH 7.4)]. The cells were incubated for 45 min. at room temperature. The buffer was then aspirated from each well and the cells were washed and incubated in 0.5 ml/well for 45 min at room temperature. The buffer was aspirated from each well, and the cells were then incubated for 20 min at 37° C. with 450 μl Krebs-bicarbonate buffer containing 10 mM LiCl instead of 10 mM NaCl (to block hydrolysis of IP1 to inositol and inorganic phosphate) and 10 mM unlabeled myo-inositol.\nTo begin treatment of the cells with metabotropic receptor-modulating compounds, 50 μl of Krebs-bicarbonate buffer (control) or 10× the final concentration of the compound was added to each well and the incubation was continued for 40 min. Incubation was terminated by addition of 1 ml ice-cold methanol to each well.\nIn order to isolate IP1 from the cells, the cells were removed from the plates by scraping with plastic pipette tips, and the cell suspension was transferred to 12×75 mm glass tubes. The tubes were thoroughly vortexed, and a 150-μl aliquot, i.e., one-tenth of the total volume, of each reaction mixture was transferred to another tube for protein determination. The water-soluble inositol phosphates were separated from the radiolabelled membrane phospholipids by extraction in 1 ml chloroform. The tubes were incubated at room temperature for 30 min before centrifugation at 500×g for 5 min at 4° C. The aqueous (top) layer containing the [^3H]-inositol phosphates was transferred to 10-ml syringes connected to Accell QMA SEP-PAK columns (Millipore; Calif.), which were attached to an Amersham Superseparator apparatus that was modified to allow collection into 20-ml scintillation vials. Water (10 ml) was added to the cartridge to remove [^3H]-inositol precursor, followed by 4 ml 0.02 M triethylammonium hydrogen carbonated buffer (TEAB, Fluka; N.Y.). To separately remove [^3H]-IP1, [^3H]-IP2 and [^3H]-IP3 from the cartridge, 4 ml of 0.1 M TEAB, 4 ml of 0.3 M TEAB and 4 ml of 0.4 M TEAB were sequentially added to the cartridge and the separate eluate fractions were collected in large scintillation vials. Ecolume cocktail (15 ml; ICN; California) was added to each vial for subsequent scintillation counting to determine the amount of each IP in the separate fractions. Protein concentration was determined using the Bio-Rad Protein Micro-Assay (Bio-Rad, Richmond, Calif.)."}, "[6]": {"test_system": "endogenous G-protein-coupled muscarinic acetylcholine receptors", "test": "Fluorescence imaging assay (fura-2), response to muscarinic agonist", "type": "cell-based, human", "conditions": "1 mM; transfectants and untransfected HEK 293 cells", "procedure": "HEK 293 cells that had been transiently transfected with mGluR5a3 and untransfected HEK 293 cells (control) were analyzed by digital video imaging in order to visualize metabotropic receptor-mediated changes in intracellular Ca^++ concentration. Transfectants (4×10^5 cells per 35-mm culture dish with glass-insert bottom) were loaded with fura-2 by exposing the cells to 1 μM fura-2 (acetoxymethyl ester) for 25 min at room temperature in the dark. The cells were then washed three times with DMEM and four times with Ringer's (160 mM NaCl, 5 mM KCl, 2 mM CaCl2, 1 mM MgCl2, 11 mM glucose, 5 mM HEPES, pH 7.3) solution.\nThe transfectants and untransfected cells were then placed on the stage of an Axiovert 100 TV inverted microscope (Zeiss, Oberkochren, Germany) equipped with a 150 W xenon lamp as the UV light source. […]\nThe uncalibrated fura-2 ratios were used to generate pseudocolor images with purple corresponding to resting intracellular Ca^++ concentration (˜100 nM) and red to high intracellular Ca^++ concentration (˜1 μM). For quantitative analysis, the average ratio value in a 12-by-12 pixel region over each cell was calculated by the software for each ratio image in an experiment and imported into a spreadsheet for further analysis and graphing."}},
  "data": [
    {"compound": "NC(CCCP(=O)(O)O)C(=O)O", "note": "(centres unmarked) [AP5, 2-amino-5-phosphonopentanoate]", "values": [
      {"measurement": "inhibition of glutamate-, quisqualate- or trans-ACPD-stimulated fluorescence increases", "setting": "[1]", "result": "Neither of these compounds (AP3, AP5 or CNQX) inhibited"}
    ]},
    {"compound": "Nc1ncnc2c1ncn2[C@@H]1O[C@@H]2COP(=O)(O)O[C@H]2[C@H]1O", "note": "[cAMP, cyclic AMP]", "values": [
      {"measurement": "current in inside-out patch", "setting": "[2]", "result": "a current was elicited"}
    ]},
    {"compound": "CC(C)Cn1c(=O)n(C)c(=O)c2[nH]cnc21", "note": "[IBMX, 3-isobutyl-1-methylxanthine]", "values": [
      {"measurement": "change in [Ca++]i", "setting": "[3]", "result": "more significant increase"}
    ]},
    {"compound": "[^3H]-glutamate", "values": [
      {"measurement": "specific binding versus membranes of pUC19-transfected cells", "setting": "[4]", "result": "significantly higher"}
    ]},
    {"compound": "N#Cc1cc2c(cc1[N+](=O)[O-])=NC(=O)C(=O)N=2", "note": "[CNQX, 6-cyano-7-nitroquinoxaline-2,3-dione]", "values": [
      {"measurement": "inhibition of glutamate-, quisqualate- or trans-ACPD-stimulated fluorescence increases", "setting": "[1]", "result": "Neither of these compounds (AP3, AP5 or CNQX) inhibited"}
    ]},
    {"compound": "NC(CP(=O)(O)O)C(=O)O", "note": "(centres unmarked) [AP3, 2-amino-3-phosphonopropionate]", "values": [
      {"measurement": "effect on quisqualate-induced increase in IP1 levels", "setting": "[5]", "result": "not affected"},
      {"measurement": "inhibition of glutamate-, quisqualate- or trans-ACPD-stimulated fluorescence increases", "setting": "[1]", "result": "Neither of these compounds (AP3, AP5 or CNQX) inhibited"}
    ]},
    {"compound": "C[N+](C)(C)CCOC(N)=O.[Cl-]", "note": "[carbamylcholine]", "values": [
      {"measurement": "intracellular Ca++ concentration change", "setting": "[6]", "result": "detectable increase in the intracellular Ca^++ concentration of the majority of the cells"}
    ]}
  ]
}
